These results are taken from US10717749B2, “Macrocyclic sulfondiimine compounds” (BAYER PHARMA AKTIENGESELLSCHAFT, priority 2015, dated 2020).

One data set concerns the target T1, CDK2/CycE (Homo sapiens, UniProt P24941).
T1 construct: GST; purchased ProQinase GmbH (Freiburg, Germany); host or cells: insect cells (Sf9)
Kind of data set: CDK2/CycE high ATP kinase assay (Method 2b, TR-FRET, 2 mM ATP). In kind it is biochemical. As for the experimental part: 2b. CDK2/CycE High ATP Kinase Assay:
CDK2/CycE-inhibitory activity of compounds of the present invention at 2 mM adenosine-tri-phosphate (ATP) was quantified employing the CDK2/CycE TR-FRET (TR-FRET=Time Resolved Fluorescence Resonance Energy Transfer) assay as described in the following paragraphs.
Recombinant fusion proteins of GST and human CDK2 and of GST and human CycE, expressed in insect cells (Sf9) and purified by Glutathion-Sepharose affinity chromatography, were purchase from ProQinase GmbH (Freiburg, Germany). As substrate for the kinase reaction biotinylated peptide biotin-Ttds-YISPLKSPYKISEG (C-terminus in amid form) was used which can be purchased e.g. from the company JERINI peptide technologies (Berlin, Germany).
For the assay 50 nl of a 100 fold concentrated solution of the test compound in DMSO was pipetted into a black low volume 384 well microtiter plate (Greiner Bio-One, Frickenhausen, Germany), 2 μl of a solution of CDK2/CycE in aqueous assay buffer [50 mM Tris/HCl pH 8.0, 10 mM MgCl2, 1.0 mM dithiothreitol, 0.1 mM sodium ortho-vanadate, 0.01% (v/v) Nonidet-P40 (Sigma)] were added and the mixture was incubated for 15 min at 22° C. to allow pre-binding of the test compounds to the enzyme before the start of the kinase reaction. […] The concentration of CDK2/CycE was adjusted depending of the activity of the enzyme lot and was chosen appropriate to have the assay in the linear range, typical concentrations were in the range of 15 ng/ml. The reaction was stopped by the addition of 5 μl of a solution of TR-FRET detection reagents (0.2 μM streptavidine-XL665 [Cisbio Bioassays, Codolet, France] and 1 nM anti-RB(pSer807/pSer811)-antibody from BD Pharmingen [#558389] and 1.2 nM LANCE EU-W1024 labeled anti-mouse IgG antibody [Perkin-Elmer, product no. AD0077, as an alternative a Terbium-cryptate-labeled anti-mouse IgG antibody from Cisbio Bioassays can be used]) in an aqueous EDTA-solution (100 mM EDTA, 0.2% (w/v) bovine serum albumin in 100 mM HEPES pH 7.5).
The resulting mixture was incubated 1 h at 22° C. to allow the formation of complex between the phosphorylated biotinylated peptide and the detection reagents. Subsequently the amount of phosphorylated substrate was evaluated by measurement of the resonance energy transfer from the Eu-chelate to the streptavidine-XL. Therefore, the fluorescence emissions at 620 nm and 665 nm after excitation at 350 nm wer measured in a TR-FRET reader, e.g. a Rubystar (BMG Labtechnologies, Offenburg, Germany) or a Viewlux (Perkin-Elmer). The ratio of the emissions at 665 nm and at […] was taken as the measure for the amount of phosphorylated substrate. The data were normalised (enzyme reaction without inhibitor=0% inhibition, all other assay components but no enzyme=100% inhibition).
A general note: TR-FRET usually uses a lanthanide donor and a delayed reading to cut background.

The next data set relates to rat hepatocytes. Kind of data set: In vitro metabolic stability in rat hepatocytes. In kind it is in vitro ADME. As to conditions: 1 μM. As for the experimental part:
Caco-2 cells (purchased from DSMZ Braunschweig, Germany) were seeded at a density of 4.5×10^4 cells per well on 24 well insert plates, 0.4 µm pore size, and grown for 15 days in DMEM medium supplemented with 10% fetal bovine serum, 1% GlutaMAX (100×, GIBCO), 100 U/mL penicillin, 100 μg/mL streptomycin (GIBCO) and 1% non essential amino acids (100×). Cells were maintained at 37° C. in a humified 5% CO2 atmosphere. Medium was changed every 2-3 day. Before running the permeation assay, the culture medium was replaced by a FCS-free hepes-carbonate transport buffer (pH 7.2). For assessment of monolayer integrity the transepithelial electrical resistance (TEER) was measured. Test compounds were predissolved in DMSO and added either to the apical or basolateral compartment in final concentration of 2 μM in transport buffer. Before and after 2 h incubation at 37° C. samples were taken from both compartments. Analysis of compound content was done after precipitation with methanol by LC/MS/MS analysis. Permeability (Papp) was calculated in the apical to basolateral (A→B) and basolateral to apical (B→A) directions. The apparent permeability was calculated using following equation: Papp=(Vr/Po)(1/S)(P2/t) Where Vr is the volume of medium in the receiver chamber, Po is the measured peak area or height of the test drug in the donor chamber at t=o, S the surface area of the monolayer, P2 is the measured peak area of the test drug in the acceptor chamber after 2 h of incubation, and t is the incubation time. The efflux ratio basolateral (B) to apical (A) was calculated by dividing the Papp B-A by the Papp A-B. In addition the compound recovery was calculated. 6. Investigation of In Vitro Metabolic Stability in Rat Hepatocytes
Hepatocytes from Han Wistar rats were isolated via a 2-step perfusion method. After perfusion, the liver was carefully removed from the rat: the liver capsule was opened and the hepatocytes were gently shaken out into a Petri dish with ice-cold Williams medium E (purchased from Sigma Aldrich Life Science, St Louis, Mo.). The resulting cell suspension was filtered through sterile gaze in 50 ml falcon tubes and centrifuged at 50×g for 3 min at room temperature. The cell pellet was resuspended in 30 ml WME and centrifuged through a Percoll® gradient for 2 times at 100×g. […] Cell viability was determined by trypan blue exclusion. […] Samples were frozen at −20° C. over night, after subsequently centrifuged for 15 minutes at 3000 rpm and the supernatant was analyzed with an Agilent 1200 HPLC-system with LCMS/MS detection.
The half-life of a test compound was determined from the concentration-time plot. From the half-life the intrinsic clearances were calculated.

As for `CN=S(C)(=N)Cc1cc2nc(c1)OCCCOc1cc(F)ccc1-c1cc(ncc1F)N2` (racemic) [Example 4, (rac)-8-[(N,S-dimethylsulfonodiimidoyl)methyl]-15,19-difluoro-3,4-dihydro-2H,11H-10,6-(azeno)-12,16-(metheno)-1,5,11,13-benzodioxadiazacyclooctadecine], the IC50 (in general, the concentration at which inhibition is half-maximal) on CDK2/CycE was 620 nM.
In the case of `CS(=N)(=N)Cc1cc2nc(c1)OCCCOc1cc(F)ccc1-c1cc(ncc1F)N2` [Example 1, 15,19-difluoro-8-[(S-methylsulfonodiimidoyl)methyl]-3,4-dihydro-2H,11H-10,6-(azeno)-12,16-(metheno)-1,5,11,13-benzodioxadiazacyclooctadecine], the “maximal calculated oral bioavailability (Fmax) based on stability data in rat hepatocytes” value (shortened to “maximal calculated oral bioavailability”) with rat hepatocytes is listed as 76%. For the same compound, the IC50 on CDK2/CycE turned out to be 140 nM.
Take `CS(=N)(Cc1cc2nc(c1)OCCCOc1cc(F)ccc1-c1cc(ncc1F)N2)=NC#N` (racemic) [Example 3, (rac)-[{[15,19-difluoro-3,4-dihydro-2H,11H-10,6-(azeno)-12,16-(metheno)-1,5,11,13-benzodioxadiazacyclooctadecin-8-yl]methyl}(imino)methyl-λ^6-sulfanylidene]cyanamide]: it took 62.4 nM to reach half-maximal inhibition at CDK2/CycE (IC50).
As for `CS(=N)(Cc1cc2nc(c1)OCCCOc1cc(F)ccc1-c1cc(ncc1F)N2)=NCCCO` (racemic) [Example 2, (rac)-3-(2-{[15,19-difluoro-3,4-dihydro-2H,11H-10,6-(azeno)-12,16-(metheno)-1,5,11,13-benzodioxadiazacyclooctadecin-8-yl]methyl}-2-methyl-2λ^6-diazathia-1,2-dien-1-yl)propan-1-ol], in the data set on rat hepatocytes, the “maximal calculated oral bioavailability” value is listed as 58%. Also, the IC50 against CDK2/CycE was 246 nM.
`CS(=N)(Cc1cc2cc(c1)OCCCCOc1cc(F)ccc1-c1nc(ncc1F)N2)=NC1CC1` (racemic) [Example 9, (rac)-9-[(N-cyclopropyl-S-methylsulfonodiimidoyl)methyl]-16,20-difluoro-2,3,4,5-tetrahydro-12H-13,17-(azeno)-11,7-(metheno)-1,6,12,14-benzodioxadiazacyclononadecine] displayed an IC50 on CDK2/CycE of 997 nM.
With `CN=S(C)(=N)Cc1cc2cc(c1)OCCCCOc1cc(F)ccc1-c1nc(ncc1F)N2` (racemic) [Example 10, (rac)-9-[(N,S-dimethylsulfonodiimidoyl)methyl]-16,20-difluoro-2,3,4,5-tetrahydro-12H-13,17-(azeno)-11,7-(metheno)-1,6,12,14-benzodioxadiazacyclononadecine], the “maximal calculated oral bioavailability” value with rat hepatocytes is reported as 46%. The compound further had an IC50 against CDK2/CycE of 1650 nM.
The like results for `CS(=N)(=N)Cc1cc2cc(c1)OCCCCOc1cc(F)ccc1-c1nc(ncc1F)N2` [Example 5, 16,20-difluoro-9-[(S-methylsulfonodiimidoyl)methyl]-2,3,4,5-tetrahydro-12H-13,17-(azeno)-11,7-(metheno)-1,6,12,14-benzodioxadiazacyclononadecine] were, in that order, 93% and 1240 nM.
With `CS(=N)(=N)Cc1cc2cc(c1)OCCCCOc1c(ccc(F)c1F)-c1nc(ncc1F)N2` [Example 6, 16,20,21-trifluoro-9-[(S-methylsulfonodiimidoyl)methyl]-2,3,4,5-tetrahydro-12H-13,17-(azeno)-11,7-(metheno)-1,6,12,14-benzodioxadiazacyclononadecine], at CDK2/CycE, the IC50 was found to be 12500 nM.
On the same count and under the same terms, the same measure for `CS(=N)(=N)Cc1cc2nc(c1C#N)OCCCOc1cc(F)ccc1-c1cc(ncc1F)N2` [Example 8, 15,19-difluoro-8-[(S-methylsulfonodiimidoyl)methyl]-3,4-dihydro-2H,11H-10,6-(azeno)-12,16-(metheno)-1,5,11,13-benzodioxadiazacyclooctadecine-7-carbonitrile]: 378 nM.
